In US20200207734A1, “HETEROCYCLIC COMPOUND AND USE THEREOF” (Takeda Pharmaceutical Company Limited, priority 2017, published 2020):

Target: T1, human orexin type 2 receptor (Homo sapiens, UniProt O43614)
T1 construct: human orexin type 2 receptor cDNA was inserted into pcDNA3.1(+) plasmid vector (Invitrogen); expressed in transfected cells
T1 sequence (O43614 1-444): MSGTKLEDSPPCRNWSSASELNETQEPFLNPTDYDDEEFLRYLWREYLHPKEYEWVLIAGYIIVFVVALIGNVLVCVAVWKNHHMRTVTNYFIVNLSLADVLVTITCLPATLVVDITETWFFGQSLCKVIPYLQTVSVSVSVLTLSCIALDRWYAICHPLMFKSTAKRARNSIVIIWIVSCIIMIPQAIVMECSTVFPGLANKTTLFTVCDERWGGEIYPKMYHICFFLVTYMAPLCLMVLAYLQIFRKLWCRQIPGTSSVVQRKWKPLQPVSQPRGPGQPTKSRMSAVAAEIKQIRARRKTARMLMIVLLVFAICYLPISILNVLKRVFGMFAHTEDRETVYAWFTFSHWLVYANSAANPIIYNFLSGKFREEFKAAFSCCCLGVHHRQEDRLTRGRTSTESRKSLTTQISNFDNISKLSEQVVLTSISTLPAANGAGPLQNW
Assay: Measurement of orexin type 2 receptor agonist activity (calcium fluorescence, CHO cells expressing hOX2R)
Assay type: cell-based
Settings: test compound 3 μM; CHO cells expressing human OX2 receptor; DMSO = 0%, orexin A (human) = 100%
Procedure, shortened: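 CHO-dhfr cells stably expressing hOX2R, loaded with Fluo-4 AM in HBSS/20 mM HEPES/0.1% BSA with probenecid, then given test compound. Calcium fluorescence was read for about 2 min 40 sec. Activity (%) was scaled between DMSO (0%) and 10 nM final human orexin A (100%).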

Going from `CS(=O)(=O)N[C@H]1CCN(C(=O)N2CCC2)[C@H]1Cc1csc(-c2cc(F)cc(F)c2)n1` [Example 340, N-((2S,3S)-1-(azetidin-1-ylcarbonyl)-2-((2-(3,5-difluorophenyl)-1,3-thiazol-4-yl)methyl)pyrrolidin-3-yl)methanesulfonamide] to `CCS(=O)(=O)N[C@H]1CCN(C(=O)N2CCC2)[C@H]1Cc1csc(-c2cc(F)cc(F)c2)n1` [Example 348, N-((2S,3S)-1-(azetidin-1-ylcarbonyl)-2-((2-(3,5-difluorophenyl)-1,3-thiazol-4-yl)methyl)pyrrolidin-3-yl)ethanesulfonamide], the “OX2R agonist activity (3 μM, %)” value rises from 103% to 109%.

Going from `CS(=O)(=O)N[C@H]1CCN(C(=O)N2CC(F)C2)[C@H]1Cc1cccc(-c2cccc(F)c2)c1` [Example 341, N-((2S,3S)-1-((3-fluoroazetidin-1-yl)carbonyl)-2-((3′-fluorobiphenyl-3-yl)methyl)pyrrolidin-3-yl)methanesulfonamide] to `CS(=O)(=O)N[C@H]1CCN(C(=O)N2CC(F)(F)C2)[C@H]1Cc1cccc(-c2cccc(F)c2)c1` [Example 342, N-((2S,3S)-1-((3,3-difluoroazetidin-1-yl)carbonyl)-2-((3′-fluorobiphenyl-3-yl)methyl)pyrrolidin-3-yl)methanesulfonamide], the “OX2R agonist activity (3 μM, %)” value rises from 98% to 109%.

First: CC1CCN1C(=O)N1CC[C@H](NS(C)(=O)=O)[C@@H]1Cc1cccc(-c2cccc(F)c2)c1 (stereo partly drawn) [Example 343, N-((2S,3S)-2-((3′-fluorobiphenyl-3-yl)methyl)-1-((2-methylazetidin-1-yl)carbonyl)pyrrolidin-3-yl)methanesulfonamide]
Second: CS(=O)(=O)N[C@H]1CCN(C(=O)N2CC3(CC3)C2)[C@H]1Cc1cccc(-c2cccc(F)c2)c1 [Example 347, N-((2S,3S)-1-(5-azaspiro[2.3]hex-5-ylcarbonyl)-2-((3′-fluorobiphenyl-3-yl)methyl)pyrrolidin-3-yl)methanesulfonamide]
The “OX2R agonist activity (3 μM, %)” value of the first is higher: 107% for the first, 87% for the second.

Going from `CS(=O)(=O)N[C@H]1CCN(C(=O)C2(O)CCC2)[C@H]1Cc1cccc(-c2cc(F)cc(F)c2)c1` [Example 344, N-((2S,3S)-2-((3′,5′-difluorobiphenyl-3-yl)methyl)-1-((1-hydroxycyclobutyl)carbonyl)pyrrolidin-3-yl)methanesulfonamide] to `CS(=O)(=O)N[C@H]1CCN(C(=O)N2CCC2)[C@H]1Cc1cccc(-c2cc(F)cc(F)c2)c1` [Example 345, N-((2S,3S)-1-(azetidin-1-ylcarbonyl)-2-((3′,5′-difluorobiphenyl-3-yl)methyl)pyrrolidin-3-yl)methanesulfonamide], the “OX2R agonist activity (3 μM, %)” value falls from 99% to 93%.

First: CS(=O)(=O)N[C@H]1CCN(C(=O)C2(C#N)CCC2)[C@H]1Cc1cccc(-c2cccc(F)c2)c1 [Example 346, N-((2S,3S)-1-((1-cyanocyclobutyl)carbonyl)-2-((3′-fluorobiphenyl-3-yl)methyl)pyrrolidin-3-yl)methanesulfonamide]
Second: CC1(C(=O)N2CC[C@H](NS(C)(=O)=O)[C@@H]2Cc2cccc(-c3cccc(F)c3)c2F)CC1 [Example 351, N-((2S,3S)-2-((2,3′-difluorobiphenyl-3-yl)methyl)-1-((1-methylcyclopropyl)carbonyl)pyrrolidin-3-yl)methanesulfonamide]
The “OX2R agonist activity (3 μM, %)” value of the first is higher: 107% for the first, 106% for the second.

Compared with `CC(C)(C)C(=O)N1CC[C@H](NS(C)(=O)=O)[C@@H]1Cc1cccc(-c2cccc(F)c2)c1F` [Example 349, N-((2S,3S)-2-((2,3′-difluorobiphenyl-3-yl)methyl)-1-(2,2-dimethylpropanoyl)pyrrolidin-3-yl)methanesulfonamide], `CC(C)(O)C(=O)N1CC[C@H](NS(C)(=O)=O)[C@@H]1Cc1cccc(-c2cccc(F)c2)c1F` [Example 387, N-((2S,3S)-2-((2,3′-difluorobiphenyl-3-yl)methyl)-1-(2-hydroxy-2-methylpropanoyl)pyrrolidin-3-yl)methanesulfonamide] is higher in “OX2R agonist activity (3 μM, %)” value: 99% for the first, 106% for the second.

First: CS(=O)(=O)N[C@H]1CCN(C(=O)C2CCC2)[C@H]1Cc1cccc(-c2cccc(F)c2)c1F [Example 350, N-((2S,3S)-1-(cyclobutylcarbonyl)-2-((2,3′-difluorobiphenyl-3-yl)methyl)pyrrolidin-3-yl)methanesulfonamide]
Second: CS(=O)(=O)N[C@H]1CCN(C(=O)N2CCC2)[C@H]1Cc1cccc(-c2cccc(F)c2)c1F [Example 352, N-((2S,3S)-1-(azetidin-1-ylcarbonyl)-2-((2,3′-difluorobiphenyl-3-yl)methyl)pyrrolidin-3-yl)methanesulfonamide]
The “OX2R agonist activity (3 μM, %)” value of the first is lower: 99% for the first, 102% for the second.

`CN(C)C(=O)N1CC[C@H](NS(C)(=O)=O)[C@@H]1Cc1cccc(-c2cc(F)cc(F)c2)c1` [Example 366, (2S,3S)-2-((3′,5′-difluorobiphenyl-3-yl)methyl)-N,N-dimethyl-3-((methylsulfonyl)amino)pyrrolidine-1-carboxamide] and `CCS(=O)(=O)N[C@H]1CCN(C(=O)C(C)(C)O)[C@H]1Cc1cccc(-c2cc(F)cc(F)c2)c1` [Example 404, N-((2S,3S)-2-((3′,5′-difluorobiphenyl-3-yl)methyl)-1-(2-hydroxy-2-methylpropanoyl)pyrrolidin-3-yl)ethanesulfonamide] are the same in “OX2R agonist activity (3 μM, %)” value: 100% for the first, 100% for the second.

Compared with `CCS(=O)(=O)N[C@H]1CCN(C(=O)N(C)C)[C@H]1Cc1cccc(-c2cccc(F)c2)c1F` [Example 373, (2S,3S)-2-((2,3′-difluorobiphenyl-3-yl)methyl)-3-((ethylsulfonyl)amino)-N,N-dimethylpyrrolidine-1-carboxamide], `CCS(=O)(=O)N[C@H]1CCN(C(=O)C(C)(C)O)[C@H]1Cc1cccc(-c2cccc(F)c2)c1F` [Example 389, N-((2S,3S)-2-((2,3′-difluorobiphenyl-3-yl)methyl)-1-(2-hydroxy-2-methylpropanoyl)pyrrolidin-3-yl)ethanesulfonamide] is higher in “OX2R agonist activity (3 μM, %)” value: 96% for the first, 102% for the second.

Going from `CC(C)(O)C(=O)N1CC[C@H](NS(C)(=O)=O)[C@@H]1Cc1cccc(-c2cc(F)cc(F)c2)c1F` [Example 395, N-((2S,3S)-1-(2-hydroxy-2-methylpropanoyl)-2-((2,3′,5′-trifluorobiphenyl-3-yl)methyl)pyrrolidin-3-yl)methanesulfonamide] to `CC(C)(O)C(=O)N1CC[C@H](NS(C)(=O)=O)[C@@H]1Cc1cccc(-c2cc(F)cc(Cl)c2)c1F` [Example 428, N-((2S,3S)-2-((3′-chloro-2,5′-difluorobiphenyl-3-yl)methyl)-1-(2-hydroxy-2-methylpropanoyl)pyrrolidin-3-yl)methanesulfonamide], the “OX2R agonist activity (3 μM, %)” value falls from 104% to 102%.

`CCS(=O)(=O)N[C@H]1CCN(C(=O)N(C)C)[C@H]1Cc1cccc(-c2cc(F)cc(F)c2)c1F` [Example 399, (2S,3S)-3-((ethylsulfonyl)amino)-N,N-dimethyl-2-((2,3′,5′-trifluorobiphenyl-3-yl)methyl)pyrrolidine-1-carboxamide] and `CC(C)C(=O)N1CC[C@H](NS(C)(=O)=O)[C@@H]1Cc1cccc(-c2cc(F)cc(F)c2)c1F` [Example 402, N-((2S,3S)-1-isobutyryl-2-((2,3′,5′-trifluorobiphenyl-3-yl)methyl)pyrrolidin-3-yl)methanesulfonamide] are the same in “OX2R agonist activity (3 μM, %)” value: 107% for the first, 107% for the second.

Compared with `CC(C)(O)C(=O)N1CC[C@H](NS(=O)(=O)CF)[C@@H]1Cc1cccc(-c2cccc(F)c2)c1F` [Example 417, N-((2S,3S)-2-((2,3′-difluorobiphenyl-3-yl)methyl)-1-(2-hydroxy-2-methylpropanoyl)pyrrolidin-3-yl)-1-fluoromethanesulfonamide], `CC(C)(O)C(=O)N1CC[C@H](NS(=O)(=O)CF)[C@@H]1Cc1cccc(-c2cc(F)cc(F)c2)c1F` [Example 423, 1-fluoro-N-((2S,3S)-1-(2-hydroxy-2-methylpropanoyl)-2-((2,3′,5′-trifluorobiphenyl-3-yl)methyl)pyrrolidin-3-yl)methanesulfonamide] is lower in “OX2R agonist activity (3 μM, %)” value: 110% for the first, 109% for the second.

Going from `CC(C)(O)C(=O)N1CC[C@H](NS(=O)(=O)CF)[C@@H]1Cc1cccc(-c2cc(F)cc(F)c2)c1` [Example 421, N-((2S,3S)-2-((3′,5′-difluorobiphenyl-3-yl)methyl)-1-(2-hydroxy-2-methylpropanoyl)pyrrolidin-3-yl)-1-fluoromethanesulfonamide] to `CC(C)(O)C(=O)N1CC[C@H](NS(=O)(=O)C(F)F)[C@@H]1Cc1cccc(-c2cc(F)cc(F)c2)c1F` [Example 424, 1,1-difluoro-N-((2S,3S)-1-(2-hydroxy-2-methylpropanoyl)-2-((2,3′,5′-trifluorobiphenyl-3-yl)methyl)pyrrolidin-3-yl)methanesulfonamide], the “OX2R agonist activity (3 μM, %)” value falls from 106% to 101%.

With `CCS(=O)(=O)N[C@H]1CCN(C(=O)C(C)(C)O)[C@H]1Cc1cccc(-c2cccc(Cl)c2)c1F` [Example 431, N-((2S,3S)-2-((3′-chloro-2-fluorobiphenyl-3-yl)methyl)-1-(2-hydroxy-2-methylpropanoyl)pyrrolidin-3-yl)ethanesulfonamide] the “OX2R agonist activity (3 μM, %)” value was 101%.
